According to PubChem BioAssay (NCI):
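Cultured in 96-well plates, cells were exposed to test compound for 48 hours across five concentrations. GI50: concentration for 50% inhibition of growth. TGI is the concentration that stops growth completely.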

Legend:
Experiment in all cases: NCI-60 cell line screen, 48 h
OVCAR-3 ovarian = test system: OVCAR-3 ovarian
A498 renal = test system: A498 renal
SF-539 CNS = test system: SF-539 CNS
HT29 colon = test system: HT29 colon
IGROV1 ovarian = test system: IGROV1 ovarian
HS 578T breast = test system: HS 578T breast
CAKI-1 renal = test system: CAKI-1 renal
HOP-62 NSCLC = test system: HOP-62 NSCLC
RXF 393 renal = test system: RXF 393 renal
EKVX NSCLC = test system: EKVX NSCLC
NCI/ADR-RES ovarian = test system: NCI/ADR-RES ovarian
SF-268 CNS = test system: SF-268 CNS
MDA-MB-435 = test system: MDA-MB-435
ACHN renal = test system: ACHN renal
OVCAR-8 ovarian = test system: OVCAR-8 ovarian
UACC-257 melanoma = test system: UACC-257 melanoma
HCC-2998 colon = test system: HCC-2998 colon
SW-620 colon = test system: SW-620 colon
UO-31 renal = test system: UO-31 renal
TK-10 renal = test system: TK-10 renal
MALME-3M melanoma = test system: MALME-3M melanoma
NCI-H23 lung = test system: NCI-H23 lung
SK-OV-3 ovarian = test system: SK-OV-3 ovarian
MCF7 breast = test system: MCF7 breast
SF-295 CNS = test system: SF-295 CNS
SNB-75 CNS = test system: SNB-75 CNS
HCT-15 colon = test system: HCT-15 colon
U251 CNS = test system: U251 CNS
SK-MEL-28 melanoma = test system: SK-MEL-28 melanoma
KM12 colon = test system: KM12 colon
COLO 205 colon = test system: COLO 205 colon
SK-MEL-2 melanoma = test system: SK-MEL-2 melanoma
NCI-H460 lung = test system: NCI-H460 lung
OVCAR-4 ovarian = test system: OVCAR-4 ovarian
DU-145 prostate = test system: DU-145 prostate
NCI-H522 lung = test system: NCI-H522 lung
LOX IMVI melanoma = test system: LOX IMVI melanoma
OVCAR-5 ovarian = test system: OVCAR-5 ovarian
SK-MEL-5 melanoma = test system: SK-MEL-5 melanoma
A549 NSCLC = test system: A549 NSCLC
T-47D breast = test system: T-47D breast
NCI-H226 lung = test system: NCI-H226 lung
SNB-19 CNS = test system: SNB-19 CNS
M14 melanoma = test system: M14 melanoma
HCT-116 colon = test system: HCT-116 colon
MOLT-4 leukemia = test system: MOLT-4 leukemia
HOP-92 NSCLC = test system: HOP-92 NSCLC
SN12C renal = test system: SN12C renal
HL-60(TB) leukemia = test system: HL-60(TB) leukemia
UACC-62 melanoma = test system: UACC-62 melanoma
BT-549 breast = test system: BT-549 breast
K-562 leukemia = test system: K-562 leukemia
CCRF-CEM leukemia = test system: CCRF-CEM leukemia
PC-3 prostate = test system: PC-3 prostate
786-0 renal = test system: 786-0 renal
MDA-MB-231 breast = test system: MDA-MB-231 breast
RPMI-8226 leukemia = test system: RPMI-8226 leukemia

C[C@@H]1CCN(C(=O)CC#N)C[C@@H]1N(C)c1ncnc2[nH]ccc12 showed a GI50 (OVCAR-3 ovarian) of over 100 µM, a TGI (OVCAR-3 ovarian) of over 100 µM and a GI50 (A498 renal) of 23.3 µM. It also gave a TGI (A498 renal) of over 100 µM, a GI50 (SF-539 CNS) of 39.3 µM and a TGI (SF-539 CNS) of over 100 µM. The GI50 (HT29 colon) was over 100 µM, the TGI (HT29 colon) was over 100 µM and the GI50 (IGROV1 ovarian) was 65.8 µM. For the same compound, the TGI (IGROV1 ovarian) was over 100 µM, the GI50 (HS 578T breast) was 30.4 µM and the TGI (HS 578T breast) was over 100 µM. The GI50 (CAKI-1 renal) was 42.1 µM, the TGI (CAKI-1 renal) was over 100 µM and the GI50 (HOP-62 NSCLC) was 40.6 µM. For the same compound, the TGI (HOP-62 NSCLC) was over 100 µM, the GI50 (RXF 393 renal) was 16.3 µM and the TGI (RXF 393 renal) was 85.3 µM. The GI50 (EKVX NSCLC) was 17.6 µM, the TGI (EKVX NSCLC) was over 100 µM and the GI50 (NCI/ADR-RES ovarian) was over 100 µM. The TGI (NCI/ADR-RES ovarian) was over 100 µM, the GI50 (SF-268 CNS) was 73.1 µM and the TGI (SF-268 CNS) was over 100 µM. For the same compound, the GI50 (MDA-MB-435) was over 100 µM, the TGI (MDA-MB-435) was over 100 µM and the GI50 (ACHN renal) was 57.2 µM. For the same compound, the TGI (ACHN renal) was over 100 µM, the GI50 (OVCAR-8 ovarian) was over 100 µM and the TGI (OVCAR-8 ovarian) was over 100 µM. It also gave a GI50 (UACC-257 melanoma) of over 100 µM, a TGI (UACC-257 melanoma) of over 100 µM and a GI50 (HCC-2998 colon) of over 100 µM. It also gave a TGI (HCC-2998 colon) of over 100 µM, a GI50 (SW-620 colon) of over 100 µM and a TGI (SW-620 colon) of over 100 µM. For the same compound, the GI50 (UO-31 renal) was 31.3 µM, the TGI (UO-31 renal) was over 100 µM and the GI50 (TK-10 renal) was 38.1 µM. The TGI (TK-10 renal) was over 100 µM, the GI50 (MALME-3M melanoma) was 82.5 µM and the TGI (MALME-3M melanoma) was over 100 µM. For the same compound, the GI50 (NCI-H23 lung) was over 100 µM, the TGI (NCI-H23 lung) was over 100 µM and the GI50 (SK-OV-3 ovarian) was 90.9 µM. It also gave a TGI (SK-OV-3 ovarian) of over 100 µM, a GI50 (MCF7 breast) of over 100 µM and a TGI (MCF7 breast) of over 100 µM. It also gave a GI50 (SF-295 CNS) of over 100 µM, a TGI (SF-295 CNS) of over 100 µM and a GI50 (SNB-75 CNS) of 12.9 µM. It also gave a TGI (SNB-75 CNS) of 84.5 µM, a GI50 (HCT-15 colon) of over 100 µM and a TGI (HCT-15 colon) of over 100 µM. For the same compound, the GI50 (U251 CNS) was over 100 µM, the TGI (U251 CNS) was over 100 µM and the GI50 (SK-MEL-28 melanoma) was 62.6 µM. The TGI (SK-MEL-28 melanoma) was over 100 µM, the GI50 (KM12 colon) was 34 µM and the TGI (KM12 colon) was over 100 µM. The GI50 (COLO 205 colon) was over 100 µM, the TGI (COLO 205 colon) was over 100 µM and the GI50 (SK-MEL-2 melanoma) was over 100 µM. It also gave a TGI (SK-MEL-2 melanoma) of over 100 µM, a GI50 (NCI-H460 lung) of over 100 µM and a TGI (NCI-H460 lung) of over 100 µM. It also gave a GI50 (OVCAR-4 ovarian) of over 100 µM, a TGI (OVCAR-4 ovarian) of over 100 µM and a GI50 (DU-145 prostate) of over 100 µM. The TGI (DU-145 prostate) was over 100 µM, the GI50 (NCI-H522 lung) was over 100 µM and the TGI (NCI-H522 lung) was over 100 µM. The GI50 (LOX IMVI melanoma) was over 100 µM, the TGI (LOX IMVI melanoma) was over 100 µM and the GI50 (OVCAR-5 ovarian) was 27.4 µM. It also gave a TGI (OVCAR-5 ovarian) of over 100 µM, a GI50 (SK-MEL-5 melanoma) of over 100 µM and a TGI (SK-MEL-5 melanoma) of over 100 µM. It also gave a GI50 (A549 NSCLC) of over 100 µM, a TGI (A549 NSCLC) of over 100 µM and a GI50 (T-47D breast) of over 100 µM. For the same compound, the TGI (T-47D breast) was over 100 µM, the GI50 (NCI-H226 lung) was 20.9 µM and the TGI (NCI-H226 lung) was over 100 µM.
For COc1cc(/C=C2\CCc3cc(OC)c(OC)cc3C2=O)cc(OC)c1, the TGI (OVCAR-3 ovarian) was over 42 µM, the TGI (A498 renal) was 39.8 µM and the TGI (SF-539 CNS) was over 31 µM. For the same compound, the TGI (HT29 colon) was over 100 µM, the TGI (SNB-19 CNS) was over 100 µM and the TGI (IGROV1 ovarian) was over 100 µM. The TGI (HS 578T breast) was over 100 µM, the TGI (CAKI-1 renal) was over 100 µM and the TGI (HOP-62 NSCLC) was over 87.1 µM. The TGI (M14 melanoma) was over 100 µM, the TGI (RXF 393 renal) was over 42.4 µM and the TGI (EKVX NSCLC) was over 100 µM. For the same compound, the TGI (HCT-116 colon) was over 42.3 µM, the TGI (NCI/ADR-RES ovarian) was 10.9 µM and the TGI (SF-268 CNS) was over 100 µM. For the same compound, the TGI (MDA-MB-435) was over 100 µM, the TGI (ACHN renal) was over 100 µM and the TGI (MOLT-4 leukemia) was over 100 µM. For the same compound, the TGI (OVCAR-8 ovarian) was over 52 µM, the TGI (UACC-257 melanoma) was over 100 µM and the TGI (HCC-2998 colon) was 15 µM. It also gave a TGI (SW-620 colon) of over 100 µM, a TGI (UO-31 renal) of over 100 µM and a TGI (TK-10 renal) of over 100 µM. The TGI (MALME-3M melanoma) was over 100 µM, the TGI (HOP-92 NSCLC) was over 100 µM and the TGI (NCI-H23 lung) was over 86.7 µM. The TGI (SK-OV-3 ovarian) was over 100 µM, the TGI (MCF7 breast) was over 84.3 µM and the TGI (SF-295 CNS) was over 25.1 µM. The TGI (SNB-75 CNS) was over 100 µM, the TGI (HCT-15 colon) was over 44.3 µM and the TGI (SN12C renal) was 38.2 µM. It also gave a TGI (U251 CNS) of over 100 µM, a TGI (SK-MEL-28 melanoma) of over 100 µM and a TGI (HL-60(TB) leukemia) of over 24 µM. It also gave a TGI (UACC-62 melanoma) of 18.4 µM, a TGI (BT-549 breast) of 65.8 µM and a TGI (KM12 colon) of over 51.7 µM. For the same compound, the TGI (COLO 205 colon) was over 52.1 µM, the TGI (SK-MEL-2 melanoma) was over 57.8 µM and the TGI (K-562 leukemia) was over 61 µM. For the same compound, the TGI (NCI-H460 lung) was over 100 µM, the TGI (OVCAR-4 ovarian) was over 100 µM and the TGI (CCRF-CEM leukemia) was over 60 µM. It also gave a TGI (DU-145 prostate) of 78.5 µM, a TGI (NCI-H522 lung) of over 42.3 µM and a TGI (LOX IMVI melanoma) of 30.9 µM. The TGI (OVCAR-5 ovarian) was 99.3 µM, the TGI (PC-3 prostate) was over 100 µM and the TGI (SK-MEL-5 melanoma) was 18.1 µM. For the same compound, the TGI (786-0 renal) was 48.7 µM, the TGI (MDA-MB-231 breast) was over 100 µM and the TGI (RPMI-8226 leukemia) was over 60.1 µM. The TGI (A549 NSCLC) was over 100 µM, the TGI (T-47D breast) was 62.1 µM and the TGI (NCI-H226 lung) was over 100 µM.
